Earlier results, collected in US20050113418A1, “Administration of pharmaceuticals” (priority 1996, published 2005).

Details: Lind et al, Gut 1983

plasma half-life: 30 to 60 min
Compound: COc1ccc2[nH]c([S+]([O-])Cc3ncc(C)c(OC)c3C)nc2c1 (stereo not shown) [Omeprazole, omeprazole]
